Laboratory results: the NIST ThermoML archive (doi:10.1021/je0342062)

Experiments:
[1] = 101.33 kPa, Liquid, Vibrating tube method
[2] = excess molar enthalpy (molar enthalpy of mixing); xn = mol fraction of the nth substance listed; settings: 308.15 K, 101.32 kPa, Liquid
[3] = xn = mol fraction of the nth substance listed; settings: 308.15 K, 101.32 kPa, Liquid, Vibrating tube method

OCc1ccccc1 [benzenemethanol]
[1]
Settings | mass density [kg/m3]
298.15 K | 1041.46
308.15 K | 1033.7

OCc1ccccc1 [benzenemethanol] + OCCO
Settings | excess molar enthalpy [kcal/mol] | mass density [kg/m3]
[2], x2 = 0.0719 | 0.0277 | –
[2], x2 = 0.1341 | 0.0409 | –
[2], x2 = 0.1886 | 0.0482 | –
[2], x2 = 0.2365 | 0.05 | –
[2], x2 = 0.3173 | 0.0512 | –
[2], x2 = 0.3826 | 0.0503 | –
[2], x2 = 0.4817 | 0.048 | –
[2], x2 = 0.5533 | 0.0457 | –
[2], x2 = 0.6502 | 0.0402 | –
[2], x2 = 0.7361 | 0.0331 | –
[2], x2 = 0.788 | 0.0282 | –
[2], x2 = 0.848 | 0.0206 | –
[2], x2 = 0.8815 | 0.017 | –
[2], x2 = 0.9177 | 0.0114 | –
[2], x2 = 0.937 | 0.00875 | –
[2], x2 = 0.9571 | 0.00602 | –
[2], x2 = 0.9781 | 0.00299 | –
[3], x2 = 0.0395 | – | 1035.06
[3], x2 = 0.1313 | – | 1038.54
[3], x2 = 0.2622 | – | 1044.29
[3], x2 = 0.3189 | – | 1047.1
[3], x2 = 0.4645 | – | 1055.28
[3], x2 = 0.5057 | – | 1057.9
[3], x2 = 0.609 | – | 1065.04
[3], x2 = 0.6863 | – | 1071.03
[3], x2 = 0.7371 | – | 1075.32
[3], x2 = 0.8097 | – | 1081.99
[3], x2 = 0.879 | – | 1088.96
[3], x2 = 0.9638 | – | 1098.48

OCc1ccccc1 [benzenemethanol] + OCCOCCO
Settings | excess molar enthalpy [kcal/mol] | mass density [kg/m3]
[2], x2 = 0.0434 | -0.0338 | –
[2], x2 = 0.0833 | -0.0564 | –
[2], x2 = 0.1199 | -0.0717 | –
[2], x2 = 0.1537 | -0.0822 | –
[2], x2 = 0.2142 | -0.0945 | –
[2], x2 = 0.2665 | -0.101 | –
[2], x2 = 0.3528 | -0.105 | –
[2], x2 = 0.4208 | -0.107 | –
[2], x2 = 0.5216 | -0.109 | –
[2], x2 = 0.6206 | -0.107 | –
[2], x2 = 0.6856 | -0.102 | –
[2], x2 = 0.7658 | -0.0887 | –
[2], x2 = 0.8135 | -0.0791 | –
[2], x2 = 0.8674 | -0.0599 | –
[2], x2 = 0.897 | -0.0501 | –
[2], x2 = 0.929 | -0.0362 | –
[2], x2 = 0.9632 | -0.0197 | –
[3], x2 = 0.0719 | – | 1038.79
[3], x2 = 0.1308 | – | 1042.93
[3], x2 = 0.2285 | – | 1049.76
[3], x2 = 0.3115 | – | 1055.63
[3], x2 = 0.4139 | – | 1062.92
[3], x2 = 0.5312 | – | 1071.36
[3], x2 = 0.6035 | – | 1076.6
[3], x2 = 0.7277 | – | 1085.7
[3], x2 = 0.8237 | – | 1092.77
[3], x2 = 0.8597 | – | 1095.43
[3], x2 = 0.8984 | – | 1098.29
[3], x2 = 0.9539 | – | 1102.43

OCc1ccccc1 [benzenemethanol] + OCCOCCOCCO
Settings | excess molar enthalpy [kcal/mol] | mass density [kg/m3]
[2], x2 = 0.0313 | -0.0333 | –
[2], x2 = 0.0606 | -0.0576 | –
[2], x2 = 0.0883 | -0.0752 | –
[2], x2 = 0.1143 | -0.0883 | –
[2], x2 = 0.1623 | -0.104 | –
[2], x2 = 0.2047 | -0.111 | –
[2], x2 = 0.2792 | -0.118 | –
[2], x2 = 0.3405 | -0.12 | –
[2], x2 = 0.4366 | -0.121 | –
[2], x2 = 0.5376 | -0.121 | –
[2], x2 = 0.6078 | -0.12 | –
[2], x2 = 0.6992 | -0.109 | –
[2], x2 = 0.756 | -0.0968 | –
[2], x2 = 0.823 | -0.0791 | –
[2], x2 = 0.8613 | -0.0665 | –
[2], x2 = 0.9029 | -0.0502 | –
[2], x2 = 0.949 | -0.0239 | –
[3], x2 = 0.0519 | – | 1039.48
[3], x2 = 0.174 | – | 1051.93
[3], x2 = 0.2411 | – | 1058.18
[3], x2 = 0.3373 | – | 1066.69
[3], x2 = 0.4327 | – | 1074.57
[3], x2 = 0.5295 | – | 1082.04
[3], x2 = 0.632 | – | 1089.43
[3], x2 = 0.7533 | – | 1097.6
[3], x2 = 0.8256 | – | 1102.12
[3], x2 = 0.8572 | – | 1104.07
[3], x2 = 0.9337 | – | 1108.5
[3], x2 = 0.961 | – | 1110.01

OCCOCCO [diethylene glycol]
[1]
Settings | mass density [kg/m3]
298.15 K | 1112.38
308.15 K | 1105.88

OCCOCCOCCO [triethylene glycol]
[1]
Settings | mass density [kg/m3]
298.15 K | 1119.78
308.15 K | 1112.61
